Series [1] concerns the target T1, Dopamine D2 receptor (hD2L) (Homo sapiens, UniProt P14416).
T1 construct: expressed in transfected cells; host or cells: CHO cells (CHO-hD2L)
The series can be described thus: Dopamine D2 Receptor Binding Assay ([3H]spiperone, CHO-hD2L membranes). The conditions noted are these: [3H]spiperone 0.4 nM, membrane preparation from CHO-hD2L cells. An excerpt:
The ability of the novel compounds of this invention to bind to the dopamine D2 receptor can be determined using conventional radioligand receptor binding assays. All receptors can be heterologously expressed in cell lines and binding assays can be conducted in membrane preparations from the cell lines using procedures outlined below. IC50 concentrations can be determined by nonlinear regression of concentration-dependent reduction in specific binding. The Cheng-Prussoff equation can be used to convert the IC50 to Ki concentrations.
[^3H]Spiperone binding to a membrane preparation from CHO-hD2L cells was carried out in 250 μl of 50 mM Tris-HCl buffer containing 100 mM NaCl, 1 mM MgCl2 and 1% DMSO at pH 7.4. Duplicate samples containing (in order of addition) the test compounds, 0.4 nM [^3H]spiperone and approximately 12 μg protein were incubated for 120 minutes at room temperature. Bound radioligand was separated by rapid filtration under reduced pressure through Whatman GF/B glass fiber filters previously treated with 0.3% polyethyleneimine. Radioactivity retained on the filter is determined by liquid scintillation spectrophotometry.

The test system of series [2] is spontaneous locomotor activity in rats. Put plainly: Spontaneous Locomotor Activity Inhibition Test. It is filed as in vivo, rat. The conditions noted are these: 60 min after dosing, recorded 1 hour, mean ± SEM. An excerpt:
Potential therapeutic effects of 2-{4-[4-(7-Fluoro-naphthalen-1-yl)-piperazin-1-yl]-butoxy}-5,6,7,9-tetrahydro-1,7,9-triaza-benzocyclohepten-8-one (hereinafter the “test compound”) were investigated in a spontaneous locomotor activity inhibition test in rats, a behavioral test predictive of antipsychotic activity. (A. E. Corbin, et. al.: PD 158771, a potential antipsychotic agent with D2/D3 partial agonist and 5-HT1A agonist actions. II. Prelinical behavioral effects. Neuropharmacology 39: 1211-1221 (2000)) The testing was performed using 16-Beam Digiscan Animal Activity Monitors (Accuscan Electronics, Columbus, Ohio). Each test chamber consisted of a PLEXIGLAS® box measuring 16×16 inches. These boxes were housed inside stainless steel, ventilated sound-attenuating chambers (SACs). Lights inside the SACs were off. Male Sprague-Dawley rats (Harlan), weighing 180 to 200 g at the time of testing, were used. Rats were provided with food and water ad libitum, but were food deprived for 24 hours before testing. Rats were randomly assigned to vehicle or drug treatment groups, and were tested one per chamber. On the test day, rats were removed from the housing room and brought to the test room, where they were placed into PLEXIGLAS® isolator cages on corncob bedding, 4 rats per cage. Rats were dosed orally (PO) with the test compound or vehicle, and then returned to the isolators. After a 60-minute absorption period, each rat was placed into the test chamber, the chamber door closed, and recording of locomotor activity begun. Locomotor activity was recorded for 1 hour, in 5-minute blocks. The test compound was suspended in 1% cremophor EL, 1% HCl 1N, and 0.5% methocel in water. The test compound or the vehicle was administered in a volume of 5 mL/kg. Doses are expressed as the active moiety (ie, base). Locomotor activity was measured as centimeters traveled and expressed as percent inhibition from vehicle control. Statistical analysis was performed using a one-way ANOVA followed by a post hoc Dunnett's test. Data from the vehicle-treated control groups from each experiment were compared using a one-way ANOVA.

Structures are written as SMILES. Structures can show the parent of a compound that is named as a salt. Marks after values point to notes of the source that are not given here.

T1 sequence (P14416 whole entry): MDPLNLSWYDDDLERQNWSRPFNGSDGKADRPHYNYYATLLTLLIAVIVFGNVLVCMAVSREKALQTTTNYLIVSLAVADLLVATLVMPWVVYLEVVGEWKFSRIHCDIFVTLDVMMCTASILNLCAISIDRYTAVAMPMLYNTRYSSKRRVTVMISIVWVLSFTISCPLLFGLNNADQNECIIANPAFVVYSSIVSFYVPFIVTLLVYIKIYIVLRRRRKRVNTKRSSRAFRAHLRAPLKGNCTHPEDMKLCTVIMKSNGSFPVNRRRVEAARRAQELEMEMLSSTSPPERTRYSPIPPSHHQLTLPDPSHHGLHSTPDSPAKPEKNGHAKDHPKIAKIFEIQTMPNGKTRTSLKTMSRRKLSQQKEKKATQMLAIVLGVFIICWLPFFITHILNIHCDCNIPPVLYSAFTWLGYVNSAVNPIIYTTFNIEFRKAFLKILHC

The melting point is the temperature, or range, at which the solid turns liquid. Consider `O=C1NCCc2ccc(OCCCCN3CCN(c4cccc(Cl)c4Cl)CC3)nc2N1` (as salt: HCl) [Example 14, 2-{4-[4-(2,3-Dichloro-phenyl)-piperazin-1-yl]-butoxy}-5,6,7,9-tetrahydro-1,7,9-triaza-benzocyclohepten-8-one], for which the melting point lay within 197 to 199 °C.
Same read-out and setting: the same measure for `O=C1NCCc2ccc(OCCCCN3CCN(c4cccc5ccccc45)CC3)nc2N1` (as salt: HCl) [Example 15, 2-[4-(4-Naphthalen-1-yl-piperazin-1-yl)-butoxy]-5,6,7,9-tetrahydro-1,7,9-triaza-benzocyclohepten-8-one]: 188 to 190 °C.
The same measure, in the same setting: in the case of `O=C1NCCc2ccc(OCCCCN3CCN(c4cccc5c4CCCC5)CC3)nc2N1` (as salt: HCl) [Example 16, 2-{4-[4-(5,6,7,8-Tetrahydro-naphthalen-1-yl)-piperazin-1-yl]-butoxy}-5,6,7,9-tetrahydro-1,7,9-triaza-benzocyclohepten-8-one] it was 185 to 186 °C; in that of `O=C1NCCc2ccc(OCCCCN3CCN(c4cccc5c4OCCC5)CC3)nc2N1` (as salt: HCl) [Example 17, 2-[4-(4-Chroman-8-yl-piperazin-1-yl)-butoxy]-5,6,7,9-tetrahydro-1,7,9-triaza-benzocyclohepten-8-one], 154 to 156 °C; in that of `O=C1NCCc2ccc(OCCCCN3CCN(c4cccc5ccc(F)cc45)CC3)nc2N1` (as salt: HCl) [Example 18, 2-{4-[4-(7-Fluoro-naphthalen-1-yl)-piperazin-1-yl]-butoxy}-5,6,7,9-tetrahydro-1,7,9-triaza-benzocyclohepten-8-one], 234 °C.
One may read the Ki as the dissociation constant of the complex between target and ligand, obtained from inhibition or displacement. A lower Ki goes with a stronger hold on the target. As for `O=C1NCCc2ccc(OCCCCN3CCN(c4cccc5c4CCC5)CC3)nc2N1` [Example 13, 2-[4-(4-Indan-4-yl-piperazin-1-yl)-butoxy]-5,6,7,9-tetrahydro-1,7,9-triaza-benzocyclohepten-8-one], the melting point fell in the range of 70 to 72 °C. In addition, the inhibition constant Ki in series [1] turned out to be 0.59 nM.
For the molecule `O=C1NCCc2ccc(OCCCCN3CCN(c4cccc5ccc(F)cc45)CC3)nc2N1` [Example 18, 2-{4-[4-(7-Fluoro-naphthalen-1-yl)-piperazin-1-yl]-butoxy}-5,6,7,9-tetrahydro-1,7,9-triaza-benzocyclohepten-8-one], the “Percent Decrease from Control (locomotor activity)” value in series [2] (0.1 mg/kg PO) was 9.0 ± 37.9^c; in series [2] (0.3 mg/kg PO), 38.3 ± 47.2^bd; in series [2] (1 mg/kg PO), 53.7 ± 4.8^bd; in series [2] (3 mg/kg PO), 75.4 ± 3.5^cd. The same molecule registered a Ki in series [1] of 1.79 nM.
In turn, `O=C1NCCc2ccc(OCCCCN3CCN(c4cccc5c4OCC5)CC3)nc2N1` [Example 19, 2-{4-[4-(2,3-Dihydro-benzofuran-7-yl)-piperazin-1-yl]-butoxy}-5,6,7,9-tetrahydro-1,7,9-triaza-benzocyclohepten-8-one] gave a melting point of 72 to 73 °C. The same molecule showed a Ki in series [1] of 0.4 nM.
The matching figures for `O=C1NCCc2ccc(OCCCCN3CCN(c4cccc5c4OCCCO5)CC3)nc2N1` [Example 20, 2-{4-[4-(3,4-Dihydro-2H-benzo[b][1,4]dioxepin-6-yl)-piperazin-1-yl]-butoxy}-5,6,7,9-tetrahydro-1,7,9-triaza-benzocyclohepten-8-one]: 78 to 79 °C and 1 nM.
On to `CN1CCc2ccc(OCCCCN3CCN(c4cccc(Cl)c4Cl)CC3)cc2NC1=O` [Example 25, 8-{4-[4-(2,3-Dichlorophenyl)piperazin-1-yl]butoxy}-3-methyl-1,3,4,5-tetrahydro-benzo[d][1,3]diazepin-2-one], for which the melting point was 139 to 140 °C.
On the same count and under the same terms, the same measure for `O=C1NCCc2ccc(OCCCN3CCN(c4cccc(Cl)c4Cl)CC3)cc2N1` [Example 28, 8-{3-[4-(2,3-Dichlorophenyl)piperazin-1-yl]propoxy}-1,3,4,5-tetrahydrobenzo[d][1,3]diazepin-2-one]: 183 to 184 °C; for `O=C1NCCc2ccc(OCCCCN3CCN(c4cccc(Cl)c4Cl)CC3)cc2N1` [Example 29, 8-{4-[4-(2,3-Dichlorophenyl)piperazin-1-yl]butoxy}-1,3,4,5-tetrahydrobenzo[d][1,3]diazepin-2-one]: 185 to 186 °C.
In turn, `O=C1NCCc2ccc(OCCCCN3CCN(c4cccc(C5CC5)n4)CC3)cc2N1` [Example 37] registered a melting point of 155 to 156 °C. This molecule also had an inhibition constant (Ki) in series [1] of 1.81 nM.
As for `CC1(C)CCC(=O)Nc2cc(OCCCN3CCN(c4cccc(Cl)c4Cl)CC3)ccc21` [Example 53, 8-{3-[4-(2,3-Dichlorophenyl)piperazin-1-yl]-propoxy}-5,5-dimethyl-1,3,4,5-tetrahydrobenzo[b]azepin-2-one], the melting point was in the range of 162 to 164 °C.
Same read-out and setting: in the case of `CC1(C)CCC(=O)Nc2cc(OCCCCN3CCN(c4cccc(Cl)c4Cl)CC3)ccc21` [Example 54, 8-{4-[4-(2,3-Dichlorophenyl)piperazin-1-yl]-butoxy}-5,5-dimethyl-1,3,4,5-tetrahydrobenzo[b]azepin-2-one] it was 106 to 108 °C; in that of `CC1(C)CCC(=O)Nc2cc(OCCCCCN3CCN(c4cccc(Cl)c4Cl)CC3)ccc21` [Example 55, 8-{5-[4-(2,3-Dichlorophenyl)piperazin-1-yl]-pentyloxy}-5,5-dimethyl-1,3,4,5-tetrahydrobenzo[b]azepin-2-one], 128 to 130 °C; in that of `CC1(C)CCc2ccc(OCCCCN3CCN(c4cccc(Cl)c4Cl)CC3)cc2NC1=O` [Example 57, 8-{4-[4-(2,3-Dichlorophenyl)piperazin-1-yl]butoxy}-3,3-dimethyl-1,3,4,5-tetrahydrobenzo[b]azepin-2-one], 110 to 112 °C.
For `CC1(C)Cc2ccc(OCCCCN3CCN(c4cccc5ccccc45)CC3)cc2NC(=O)N1` [Example 59, 4,4-Dimethyl-8-[4-(4-naphthalen-1-yl-piperazin-1-yl)-butoxy]-1,3,4,5-tetrahydro-benzo[d][1,3]diazepin-2-one], affinity in series [1] was put at a Ki of 3 nM.
The same measure, in the same setting: in the case of `CC1(C)Cc2ccc(OCCCN3CCN(c4cccc5ccccc45)CC3)cc2NC(=O)N1` [Example 60, 4,4-Dimethyl-8-[3-(4-naphthalen-1-yl-piperazin-1-yl)-propoxy]-1,3,4,5-tetrahydro-benzo[d][1,3]diazepin-2-one] it was 9.38 nM.
Molecule `O=C1NCCc2ccc(/C=C/CCCN3CCN(c4cccc(Cl)c4Cl)CC3)cc2N1` [Example 64] showed a melting point of 219 to 220 °C. The molecule further returned a Ki in series [1] of 9.49 nM.
`O=C1NCCc2ccc(CCCCCN3CCN(c4cccc(Cl)c4Cl)CC3)cc2N1` [Example 65] had a melting point of 159 to 161 °C. In addition, in series [1], the inhibition constant (Ki) amounted to 4.47 nM.
The matching figures for `CC1(C)CNC(=O)Nc2cc(CCCCCN3CCN(c4cccc(Cl)c4Cl)CC3)ccc21` [Example 67, 8-{5-[4-(2,3-Dichlorophenyl)piperazin-1-yl]pentyl}-5,5-dimethyl-1,3,4,5-tetrahydro-benzo[d][1,3]diazepin-2-one Methanesulfonic Acid]: 215 to 218 °C and 25 nM.
For `CC1(C)CCC(=O)Nc2cc(/C=C/CCCN3CCN(c4cccc(Cl)c4Cl)CC3)ccc21` [Example 69], the melting point lay within 108 to 109 °C. The inhibition constant Ki in series [1] is 70.9 nM.
The matching figures for `CC1(C)CCC(=O)Nc2cc(CCCCCN3CCN(c4cccc(Cl)c4Cl)CC3)ccc21` [Example 70, 8-{5-[4-(2,3-Dichlorophenyl)piperazin-1-yl]pentyl}-5,5-dimethyl-1,3,4,5-tetrahydrobenzo[b]azepin-2-one Methanesulfonic Acid]: 168 to 170 °C and 56.5 nM.

The record behind these values is US20060234997A1, “Tetrahydro-pyridoazepin-8-ones and related compounds for the treatment of schizophrenia” (WARNER-LAMBERT COMPANY LLC, priority 2005, published 2006).
